pKi: −log10 of the molar value.
Experiments:
[1] = biological target: T1, Muscarinic acetylcholine receptor M1 (Homo sapiens, UniProt P11229); assay: (§1) Binding Assay: Binding affinity (Ki) of compounds was measured by inhibition of radioligand binding to membranes from CHO cells expressing human M1, M2, M3, M4 and M5 receptors. Membranes were prepared by nitrogen cavitation and differential centrifugation as previously described (Hoare et al., Mol. Pharmacol. 2003 March; 63(3): 751-65). The radioligand employed was tritiated N-methylscopolamine, used at a concentration of 1.5 nM. A dose-response of twelve concentrations of compound was used, […]. The assay buffer was 50 mM HEPES, 100 mM NaCl, 5 mM MgCl2, 1 mM ethylenediaminetetraacetic acid, pH-adjusted to pH 7.4.
T1 sequence (P11229 whole entry): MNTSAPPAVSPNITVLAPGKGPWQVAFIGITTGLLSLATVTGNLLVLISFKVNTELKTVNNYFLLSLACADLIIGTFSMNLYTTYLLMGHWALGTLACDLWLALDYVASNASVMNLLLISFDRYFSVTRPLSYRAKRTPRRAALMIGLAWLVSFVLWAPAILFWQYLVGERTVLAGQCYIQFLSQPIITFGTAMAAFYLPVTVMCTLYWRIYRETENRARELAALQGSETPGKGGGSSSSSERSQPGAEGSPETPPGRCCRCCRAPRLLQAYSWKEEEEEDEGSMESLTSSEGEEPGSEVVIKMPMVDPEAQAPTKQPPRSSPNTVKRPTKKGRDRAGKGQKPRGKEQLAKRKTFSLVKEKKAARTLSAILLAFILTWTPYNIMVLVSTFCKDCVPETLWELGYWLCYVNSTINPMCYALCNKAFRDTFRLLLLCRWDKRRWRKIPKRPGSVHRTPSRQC

[2] = biological target: T2, Muscarinic acetylcholine receptor M4 (Homo sapiens, UniProt P08173); assay: as §1
T2 sequence (P08173 whole entry): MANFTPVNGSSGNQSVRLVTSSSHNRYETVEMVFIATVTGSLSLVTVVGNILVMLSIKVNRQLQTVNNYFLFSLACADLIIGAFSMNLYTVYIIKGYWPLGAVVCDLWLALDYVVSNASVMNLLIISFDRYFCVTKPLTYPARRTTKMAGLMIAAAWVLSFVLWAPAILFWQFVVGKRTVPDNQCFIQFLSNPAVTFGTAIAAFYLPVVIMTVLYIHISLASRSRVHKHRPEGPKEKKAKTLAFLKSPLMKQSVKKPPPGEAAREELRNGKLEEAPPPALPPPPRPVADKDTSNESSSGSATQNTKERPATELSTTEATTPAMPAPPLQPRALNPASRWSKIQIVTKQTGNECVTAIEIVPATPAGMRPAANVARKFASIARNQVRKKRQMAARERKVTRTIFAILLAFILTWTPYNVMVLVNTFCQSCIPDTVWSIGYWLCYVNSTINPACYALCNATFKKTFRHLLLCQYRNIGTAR

pKi [2] | Structure (SMILES) | pKi [1]
 | C[C@@H]1CN(c2ncc(C(F)(F)F)c(N)n2)CCN1C(=O)NCCC1CCN(Cc2ccccc2)CC1 | 7.00 to 8.00
 | C[C@@H]1CN(c2ncc(C(F)(F)F)cn2)CCN1C(=O)NCCC1CCN(Cc2ccccc2)CC1 | 6.00 to 7.00
7.00 to 8.00 | COc1ccc(N2CCN(C(=O)NCCC3CCN(Cc4ccccc4)CC3)[C@H](C)C2)cc1C#N | 

From ChEMBL document CHEMBL5728519, “Compounds of formulas (VII), (VIII), (IX), (XI), (XII), (XIII), and (XIV) as muscarinic receptor 4(M4) antagonists for treating neurological diseases” (2021)
